Series [1] concerns secretion activity of the stomach and of the pancreas. Kind of series: gastrin activity (stimulation of the secretion activity of the stomach and of the pancreas).
The nature of series [2]: stability compared to natural minigastrin. Particulars: as compared to the natural minigastrin.

We go through one substance from patent publication US4117117A, “Tridecapetide having gastrin effect” (Max Planck-Gesellschaft zur Forderung der Wissenschaften, priority 1976, dated 1978).

For “L-leucyl-L-glutamyl-L-glutamyl-L-glutamyl-L-glutamyl-L-glutamyl-L-ananyl-L-tyrosyl-glycyl-L-tryptophyl-L-leucyl-L-asparagyl-L-phenylalanineamide [11-leucine-minigastrin]”, the gastrin activity result in series [1] is reported as “satisfactory”. Besides, the “stimulation of the secretion activity of the stomach and of the pancreas” value in series [1] (just like naturally-occurring gastrin) is “causes stimulation”. The stability entry in series [2] is on record as “improved stability”.
